Assay [1] deals with ex vivo stimulated LTB4 production. The assay is described as follows: Murine arachidonic acid-induced inflammation model: ex vivo stimulated LTB4 production (% Inh. LTB4). The following applies: Mus musculus; female Balb/c mice, 30 mg/kg oral gavage; blood taken 3 h after arachidonic acid, ex vivo A23187 stimulation; number of determinations in parentheses. The procedure: (§1) Assay 4: Murine Arachidonic Acid-Induced Inflammation Model
(§2) LTA4H inhibitor compounds of the present invention were dissolved in 20% cyclodextran/H2O at a concentration of 3 mg/mL. The solutions were administered by oral gavage to female Balb/c mice weighing approximately 20 grams each (0.2 mL per mouse, 30 mg of LTA4H inhibitor compound per kg). Sixty minutes after being administered an LTA4 inhibitor, each mouse received topical application of 20 μL of arachidonic acid (100 mg/mL in acetone) to the left ear and 20 μL of acetone only to the right ear. After 3 h, the mice were sacrificed, blood was withdrawn in heparinized syringes, and 8 mm ear biopsies were taken. Ear biopsies were weighed to determine edema and then frozen at −80° C. until needed for determination of neutrophil influx.
One hundred-microliter aliquots of heparinized blood were added to wells of a microtiter plate, along with equal volumes of RPMI-1640 medium, and calcium ionophore A23187 was added to each sample well (final concentration=[…]). The microtiter plate contents were incubated for 30 min at 37° C. in a humidified incubator. The reaction was terminated by centrifugation (833×g, 10 min at 4° C.). Supernatants were analyzed for LTB4 by a commercially available enzyme-linked immunoassay (Cayman Chemical Co.) in accordance with the manufacturer's instructions. The percent inhibition of ex vivo stimulated LTB4 production (% Inh. LTB4) was determined by comparison to animals treated identically except that the solution administered by oral gavage was devoid of inhibitor compound.
(§3) The number of determinations is indicated in parentheses following each value

The target in assay [2] is T1, recombinant human LTA4 hydrolase (rhLTA4H) (Homo sapiens, UniProt P09960).
T1 construct: made in house; host or cells: Spodoptera frugiperda (Sf-9) cells, recombinant baculovirus (pFastBac1)
T1 sequence (P09960 1-611): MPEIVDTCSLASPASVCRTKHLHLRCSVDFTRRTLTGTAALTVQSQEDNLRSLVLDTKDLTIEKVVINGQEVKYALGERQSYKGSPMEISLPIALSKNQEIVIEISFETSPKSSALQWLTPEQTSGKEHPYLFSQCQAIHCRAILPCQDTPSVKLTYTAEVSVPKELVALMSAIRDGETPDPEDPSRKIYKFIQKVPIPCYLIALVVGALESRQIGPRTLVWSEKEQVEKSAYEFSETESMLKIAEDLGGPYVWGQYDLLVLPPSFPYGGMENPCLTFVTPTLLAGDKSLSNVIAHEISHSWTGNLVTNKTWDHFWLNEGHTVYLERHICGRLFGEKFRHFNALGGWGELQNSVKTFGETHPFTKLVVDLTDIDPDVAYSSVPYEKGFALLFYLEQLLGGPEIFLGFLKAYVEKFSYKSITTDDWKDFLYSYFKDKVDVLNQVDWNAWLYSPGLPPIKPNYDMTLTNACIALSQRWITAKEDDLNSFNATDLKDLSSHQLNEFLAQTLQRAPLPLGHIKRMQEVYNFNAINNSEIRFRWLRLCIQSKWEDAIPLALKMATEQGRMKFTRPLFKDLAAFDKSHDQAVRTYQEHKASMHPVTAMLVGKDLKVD
Description: Recombinant human LTA4 hydrolase assay for LTA4 hydrolase inhibitor activity. The assay is classed as biochemical. The following applies: rhLTA4H, LTA4 substrate, LTB4 by immunoassay; single determination or average; read-out: IC50. A digest of the protocol:
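Recombinant human LTA4H from baculovirus-infected Sf-9 cells (10 ng) pre-incubated 10 min at rt with compound (10% DMSO in dilutions), then reacted with free-acid LTA4 for 30 min at rt. LTB4 measured by ELISA; IC50 by nonlinear regression. Values are single determinations or averages.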

The test system of assay [3] is neutrophil influx. Description: Murine arachidonic acid-induced inflammation model: neutrophil influx in ear, myeloperoxidase activity (% Inh. MPO). Conditions: Mus musculus, female Balb/c mice, 30 mg/kg oral gavage, ear biopsy 3 h after topical arachidonic acid, number of determinations in parentheses. The class given is in vivo. The procedure:
as §1, §2
Neutrophil influx was quantified by measuring the activity of myeloperoxidase (MPO), a neutrophil-specific enzyme. The ear biopsies were homogenized in 0.5 mL extraction buffer (0.3 M sucrose, 0.22% (w/v) hexadecyl trimethyl ammonium bromide (CTAB), and 2.5 mM citrate prepared from 0.5 M citrate stock solution (pH 5.0)), in a Fast-Prep-24 (MP™) (40 seconds at 6 mps). Debris was removed by centrifugation at 14000×g for 10 min. Aliquots of 10 μL of the resulting supernatant were added to wells of a microtiter plate, along with 90-μL aliquots of dilution buffer (10 mM citrate, 0.22% CTAB), followed by addition of 20 μL TMB liquid substrate system (Sigma Chemical Co.) to each sample well. The microtiter plate contents were held at room temperature until the sample with the highest concentration of MPO reached an absorbance value of 0.4 at 650 nm. The reaction was stopped by addition of 50 μL 1 M H2SO4 to each sample well, and the myeloperoxidase activity in each sample was determined from the absorbance at 405 nm. The background value from the right ear, treated only with acetone, was subtracted from that for the left ear, treated with arachidonic acid in acetone, for each animal. The percent inhibition of neutrophil influx (% Inh. MPO) by compounds of the invention was determined by comparison to animals treated identically, except that the solution administered by oral gavage was devoid of inhibitor compound.
as §3

Assay [4] relates to LTB4 production by calcium ionophore-stimulated murine blood. The assay is described as follows: LTB4 production by calcium ionophore-stimulated murine blood for LTA4H inhibitor activity. The following applies: Mus musculus. The class given is cell-based, CD-1 mice. Summed up:
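Heparinized CD-1 mouse blood pre-incubated with compound 15 min at 37° C, then stimulated with calcium ionophore A23187 (7 μg/mL final) for 30 min. LTB4 in supernatant measured by enzyme immunoassay; values are single or averaged determinations, with SD for n≥3.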

[5] abbreviates: murine blood diluted 1 in 15, calcium ionophore A23187, LTB4 by immunoassay, read-out: IC50.

Molecules are shown by their SMILES. Structures can show the parent of a compound that is named as a salt. Where two headings read alike, the source gives them in different places.

`c1cnc2nc(Oc3ccc(CCN4CCCC4)cc3)sc2c1` [Example 61, 2-[4-(2-Pyrrolidin-1-ylethyl)phenoxy][1,3]thiazolo[4,5-b]pyridine]: in assay [1], the inhibition (commonly the drop in the measured response relative to a control, in per cent) at 30 mg/kg came out at 67.4%. The results for the 50% inhibitory concentration (IC50) in assay [2] and in assay [4] (setting [5]) were 0.004 µM and 0.011 µM, respectively. In addition, in assay [3], the inhibition in vivo (usually the relative decrease from the control value, in per cent) at 30 mg/kg came to 62.8%.

With `NC(=O)C1CCN(Cc2ccc(Oc3nc4ncc(F)cc4s3)cc2)CC1` [Example 283, 1-{4-[(6-Fluoro[1,3]thiazolo[4,5-b]pyridin-2-yl)oxy]benzyl}piperidine-4-carboxamide], in assay [1], the inhibition at 30 mg/kg turned out to be 78.2%. For the same molecule, in assay [3], the inhibition in vivo at 30 mg/kg is 88.3%. Besides, the IC50 (as a rule, the midpoint of a concentration-inhibition curve) in assay [4] (setting [5]) was 0.068 µM.

`C[C@H]1CCCCN1Cc1ccc(Oc2nc3ncccc3s2)cc1` [Example 90, 2-(4-{[(2S)-2-Methylpiperidin-1-yl]methyl}phenoxy)[1,3]thiazolo[4,5-b]pyridine]: the half-inhibitory concentration (IC50) stood at 0.0008 µM in assay [2] and 0.023 µM in assay [4] (setting [5]).

Turning to `COCCN(C)CCOc1ccc(Oc2nc3nccc(C)c3s2)cc1` [Example 160, N-Methyl-2-(methyloxy)-N-[2-({4-[(7-methyl[1,3]thiazolo[4,5-b]pyridin-2-yl)oxy]phenyl}oxy)ethyl]ethanamine], the IC50 amounted to 0.099 µM in assay [2] and 0.18 µM in assay [4] (setting [5]).

For the molecule `NC(=O)N[C@H]1C[C@H]2CC[C@@H](C1)N2CCc1ccc(Oc2nc3ncccc3s2)cc1` [Example 77, meso-1-[(3-endo)-8-{2-[4-([1,3]Thiazolo[4,5-b]pyridin-2-yloxy)Phenyl]ethyl}-8-azabicyclo[3.2.1]oct-3-yl]urea], the IC50 stood at 0.0029 µM in assay [2] and 0.19 µM in assay [4] (setting [5]).

On to `c1cnc2nc(Oc3ccc(OCCN4CCCC4)cc3)sc2c1` [Example 9, 2-[4-(2-Pyrrolidin-1-ylethoxy)phenoxy][1,3]thiazolo[4,5-b]pyridine], for which the IC50 is 0.006 µM in assay [2] and 0.017 µM in assay [4] (setting [5]).

As for `c1ccc(SC2CCN(CCOc3ccc(Oc4nc5ncccc5s4)cc3)CC2)cc1` [Example 3, 2-(4-{2-[4-(Phenylsulfanyl)piperidin-1-yl]ethoxy}phenoxy)[1,3]thiazolo[4,5-b]pyridine], the IC50 in assay [2] stood at 0.07 µM; in assay [4] (setting [5]) it was 0.38 µM.

In the case of `OC1CCN(Cc2ccc(Oc3nc4ncccc4s3)cc2)CC1` [Example 137, 1-[4-([1,3]Thiazolo[4,5-b]pyridin-2-yloxy)benzyl]piperidin-4-ol], the IC50 in assay [2] was 0.008 µM; in assay [4] (setting [5]) it was 0.0056 µM.

With `c1cncc(OC2CCN(Cc3ccc(Oc4nc5ncccc5s4)cc3)CC2)c1` [Example 98, 2-(4-{[4-(Pyridin-3-yloxy)piperidin-1-yl]methyl}phenoxy)[1,3]thiazolo[4,5-b]pyridine], the half-inhibitory concentration (IC50) in assay [2] turned out to be 0.006 µM; in assay [4] (setting [5]), 0.009 µM.

As for `OC1(c2cccc(C(F)(F)F)c2)CCN(CCc2ccc(Oc3nc4ncccc4s3)cc2)CC1` [Example 64, 1-{2-[4-([1,3]Thiazolo[4,5-b]pyridin-2-yloxy)phenyl]ethyl}-4-[3-(trifluoromethyl)phenyl]piperidin-4-ol], the figures for the IC50 in assay [2] and in assay [4] (setting [5]) were 0.027 µM and 0.22 µM, respectively.

Regarding `F[C@@H]1CCN(Cc2ccc(Oc3nc4ncccc4s3)cc2)C1` [Example 87, 2-(4-{[(3R)-3-Fluoropyrrolidin-1-yl]methyl}phenoxy)[1,3]thiazolo[4,5-b]pyridine], the values for the half-maximal inhibitory concentration (IC50) in assay [2] and in assay [4] (setting [5]) were 0.03 µM and 0.024 µM, respectively.

Regarding `NC(=O)N[C@H]1C[C@H]2CC[C@@H](C1)N2Cc1ccc(Oc2nc3ncccc3s2)cc1` [Example 278, meso-1-{(3-endo)-8-[4-([1,3]Thiazolo[4,5-b]pyridin-2-yloxy)benzyl]-8-azabicyclo[3.2.1]oct-3-yl}urea], the half-inhibitory concentration (IC50) in assay [2] was determined as 0.002 µM; in assay [4] (setting [5]) it was 0.28 µM.

On to `c1ccc(OC2CCN(CCOc3ccc(Oc4nc5ncccc5s4)cc3)CC2)nc1` [Example 12, 2-(4-{2-[4-(Pyridin-2-yloxy)piperidin-1-yl]ethoxy}phenoxy)[1,3]thiazolo[4,5-b]pyridine], for which the IC50 in assay [2] was found to be 0.011 µM; in assay [4] (setting [5]) it was 0.16 µM.

With `CC(=O)N[C@H]1C[C@H]2CC[C@@H](C1)N2CCOc1ccc(Oc2nc3nccnc3s2)cc1` [Example 148, meso-N-[(3-endo)-8-{2-[4-([1,3]Thiazolo[4,5-b]pyrazin-2-yloxy)phenoxy]ethyl}-8-azabicyclo[3.2.1]oct-3-yl]acetamide], the IC50 in assay [2] was determined as 0.043 µM; in assay [4] (setting [5]) it was 0.036 µM.

Consider `NC(=O)N[C@@H]1C[C@H]2CC[C@@H](C1)N2CCOc1ccc(Oc2nc3ncccc3s2)cc1` [Example 142, meso-1-[(3-exo)-8-{2-[4-([1,3]Thiazolo[4,5-b]pyridin-2-yloxy)phenoxy]ethyl}-8-azabicyclo[3.2.1]oct-3-yl]urea hydrochloride], for which the IC50 in assay [2] turned out to be 0.008 µM; in assay [4], 1600 µM.

As for `CC(=O)N[C@H]1C[C@H]2CC[C@@H](C1)N2Cc1ccc(Oc2nc3nccc(C)c3s2)cc1` [Example 289, meso-endo-N-[8-{4-[(7-Methyl[1,3]thiazolo[4,5-b]pyridin-2-yl)oxy]benzyl}-8-azabicyclo[3.2.1]oct-3-yl]acetamide], the IC50 in assay [2] is 0.009 µM; in assay [4] (setting [5]), 0.542 µM.

Regarding `CC(=O)N1CCC2(CCN(Cc3ccc(Oc4nc5ncccc5s4)cc3)CC2)CC1` [Example 295, 3-Acetyl-9-[4-([1,3]thiazolo[4,5-b]pyridin-2-yloxy)benzyl]-3,9-diazaspiro[5.5]undecane], the IC50 amounted to 0.006 µM in assay [2] and 0.015 µM in assay [4] (setting [5]).

`c1cnc2nc(Oc3ccc(OCCN4CCOCC4)cc3)sc2c1` [Example 11, 2-[4-(2-Morpholin-4-ylethoxy)phenoxy][1,3]thiazolo[4,5-b]pyridine]: the IC50 in assay [2] worked out at 0.098 µM; in assay [4] (setting [5]), 0.19 µM.

On to `COCCCN(CCOc1ccc(Oc2nc3ncccc3s2)cc1)C1CC1` [Example 272, N-(3-Methoxypropyl)-N-{2-[4-([1,3]thiazolo[4,5-b]pyridin-2-yloxy)phenoxy]ethyl}cyclopropanamine], for which the 50% inhibitory concentration (IC50) was 0.037 µM in assay [2] and 0.097 µM in assay [4] (setting [5]).

Regarding `CC(=O)N1[C@@H]2CC[C@H]1C[C@@H](NCc1ccc(Oc3nc4ncccc4s3)cc1)C2` [Example 169, meso-(3-endo)-8-Acetyl-N-{[4-([1,3]thiazolo[4,5-b]pyridin-2-yloxy)phenyl]methyl}-8-azabicyclo[3.2.1]octan-3-amine], the concentration for half-maximal inhibition (IC50) in assay [2] stood at 0.018 µM; in assay [4] (setting [5]), 0.054 µM.
